Laboratory results published in patent US10093713B2, “GIP-GLP-1 dual agonist compounds and methods” (priority 2013, dated 2018).
Where two headings read alike, the source gives them in different places. *1 amine or outer side, *2 acyl side, *3 side chain or, on linkers, in order; H or OH if unused. Where a SMILES comes first, the peptide text is derived from it. Side-chain parts run from the residue outwards. [ ]: non-standard residue; d: D form. The star is where a group is joined. C20 diacid = O=C(O)CCCCCCCCCCCCCCCCCCC(=O)*; C18 diacid = O=C(O)CCCCCCCCCCCCCCCCC(=O)*; γGlu = O=C(O)[C@H](CCC(=O)[*:2])N[*:1]; AEEA = NCCOCCOCC(=O)O; Aib = CC(C)(N)C(=O)O

Columns and labels:
human GIP R = target: T1, human GIP R (Homo sapiens, UniProt P48546); experiment: Human GIP receptor (GIP R) activity assay, cAMP induction (AlphaScreen) in HEK293 cells; type: cell-based; details: read-out: hGIP-R cAMP EC50 average value
T1 construct: expressed in transfected cells
T1 sequence (P48546 22-466): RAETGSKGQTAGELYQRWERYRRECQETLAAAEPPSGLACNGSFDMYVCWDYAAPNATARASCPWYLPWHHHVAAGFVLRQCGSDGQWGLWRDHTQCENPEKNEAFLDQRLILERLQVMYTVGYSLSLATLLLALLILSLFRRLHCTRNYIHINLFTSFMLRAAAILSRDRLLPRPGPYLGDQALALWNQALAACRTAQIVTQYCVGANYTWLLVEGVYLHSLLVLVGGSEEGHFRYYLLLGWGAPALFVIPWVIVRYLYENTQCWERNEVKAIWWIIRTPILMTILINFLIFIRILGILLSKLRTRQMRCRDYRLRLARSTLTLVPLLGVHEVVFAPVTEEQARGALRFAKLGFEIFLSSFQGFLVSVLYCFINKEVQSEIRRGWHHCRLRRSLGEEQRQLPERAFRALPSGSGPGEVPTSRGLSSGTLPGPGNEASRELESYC
Procedure, shortened: (§1)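 Stable HEK293 clones expressing human GIP R or GLP-1 R, seeded 1 day before; cells washed in Tyrode's buffer (10 mM HEPES, pH 7.4), stimulated, then lysed. cAMP measured by AlphaScreen bead competition (1 h, room temperature, dark). EC50 = concentration giving half-maximal cAMP elevation, from curves of absolute cAMP (nM) vs log concentration.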

human GLP-1 R = target: T2, human GLP-1 R (Homo sapiens, UniProt P43220); experiment: Human GLP-1 receptor (GLP-1 R) activity assay, cAMP induction (AlphaScreen) in HEK293 cells; type: cell-based; details: Table 2; HEK293 cells expressing human GLP-1 R; read-out: hGLP1-R cAMP EC50 average value
T2 construct: expressed in transfected cells
Procedure, shortened: as §1

[1] = Table 3, most comprehensive data
[2] = Table 2, HEK293 cells expressing human GIP R

T2 sequence (P43220 24-463): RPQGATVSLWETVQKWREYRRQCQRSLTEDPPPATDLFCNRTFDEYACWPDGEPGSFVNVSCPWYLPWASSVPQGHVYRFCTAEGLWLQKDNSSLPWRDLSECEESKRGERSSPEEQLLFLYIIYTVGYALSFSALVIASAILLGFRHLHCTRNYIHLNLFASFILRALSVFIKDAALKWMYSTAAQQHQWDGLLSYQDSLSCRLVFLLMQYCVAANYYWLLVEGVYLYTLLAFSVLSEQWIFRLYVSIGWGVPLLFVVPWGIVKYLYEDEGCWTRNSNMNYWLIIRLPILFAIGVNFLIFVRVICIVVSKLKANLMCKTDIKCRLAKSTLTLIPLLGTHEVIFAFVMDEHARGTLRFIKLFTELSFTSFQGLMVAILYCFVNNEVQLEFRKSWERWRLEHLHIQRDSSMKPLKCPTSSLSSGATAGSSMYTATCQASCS

## CC[C@H](C)[C@H](NC(=O)[C@H](CO)NC(=O)[C@H](CC(C)C)NC(=O)[C@H](CC(=O)O)NC(=O)[C@H](CO)NC(=O)[C@@H](NC(=O)[C@H](Cc1ccccc1)NC(=O)[C@@H](NC(=O)CNC(=O)[C@H](CCC(=O)O)NC(=O)C(C)(C)NC(=O)[C@@H](N)Cc1ccc(O)cc1)[C@@H](C)O)[C@@H](C)O)C(=O)N[C@@H](C)C(=O)N[C@@H](CC(C)C)C(=O)N[C@@H](CCC(=O)O)C(=O)N[C@@H](CCCCN)C(=O)N[C@@H](CCCCNC(=O)COCCOCCNC(=O)COCCOCCNC(=O)CC[C@H](NC(=O)CCCCCCCCCCCCCCCCC(=O)O)C(=O)O)C(=O)N[C@@H](C)C(=O)N[C@@H](CCC(N)=O)C(=O)N[C@@H](CCCNC(=N)N)C(=O)N[C@@H](C)C(=O)N[C@@H](Cc1ccccc1)C(=O)N[C@H](C(=O)N[C@@H](CCC(=O)O)C(=O)N[C@@H](Cc1c[nH]c2ccccc12)C(=O)N[C@@H](CC(C)C)C(=O)N[C@@H](CCC(=O)O)C(=O)N[C@@H](C)C(=O)N[C@@H](CCC(N)=O)C(=O)N[C@@H](CCCCN)C(N)=O)C(C)C [Compound 24] (H-Y[Aib]EGTFTSDLSIALEKK([AEEA-AEEA-γGlu-C18 diacid])AQRAFVEWLEAQK-NH2)
Human GIP R; [1]
  EC50: 0.26 nM
Human GLP-1 R
  EC50: 0.011 nM

## CC[C@H](C)[C@H](NC(=O)[C@H](CO)NC(=O)[C@H](Cc1ccc(O)cc1)NC(=O)[C@H](CC(=O)O)NC(=O)[C@H](CO)NC(=O)[C@@H](NC(=O)[C@H](Cc1ccccc1)NC(=O)[C@@H](NC(=O)CNC(=O)[C@H](CCC(=O)O)NC(=O)C(C)(C)NC(=O)[C@@H](N)Cc1ccc(O)cc1)[C@@H](C)O)[C@@H](C)O)C(=O)N[C@@H](C)C(=O)N[C@@H](CC(C)C)C(=O)N[C@@H](CCC(=O)O)C(=O)N[C@@H](CCCCN)C(=O)N[C@@H](CCCCNC(=O)COCCOCCNC(=O)COCCOCCNC(=O)CC[C@H](NC(=O)CCCCCCCCCCCCCCCCCCC(=O)O)C(=O)O)C(=O)N[C@@H](C)C(=O)N[C@@H](CCC(N)=O)C(=O)N[C@@H](CCCNC(=N)N)C(=O)N[C@@H](C)C(=O)N[C@@H](Cc1ccccc1)C(=O)N[C@H](C(=O)N[C@@H](CCC(=O)O)C(=O)N[C@@H](Cc1c[nH]c2ccccc12)C(=O)N[C@@H](CC(C)C)C(=O)N[C@@H](CC(C)C)C(=O)N[C@@H](C)C(=O)N[C@@H](CCC(N)=O)C(=O)N[C@@H](CCCCN)C(N)=O)C(C)C [Compound 25] (H-Y[Aib]EGTFTSDYSIALEKK([AEEA-AEEA-γGlu-C20 diacid])AQRAFVEWLLAQK-NH2)
Human GIP R; [2]
  EC50: 0.009 nM
Human GIP R; [1]
  EC50: 0.009 nM
Human GLP-1 R
  EC50: 0.011 nM

## CC[C@H](C)[C@H](NC(=O)[C@H](CO)NC(=O)[C@H](CC(C)C)NC(=O)[C@H](CC(=O)O)NC(=O)[C@H](CO)NC(=O)[C@@H](NC(=O)[C@H](Cc1ccccc1)NC(=O)[C@@H](NC(=O)CNC(=O)[C@H](CCC(=O)O)NC(=O)C(C)(C)NC(=O)[C@@H](N)Cc1ccc(O)cc1)[C@@H](C)O)[C@@H](C)O)C(=O)N[C@@H](C)C(=O)N[C@@H](CC(C)C)C(=O)N[C@@H](CCC(=O)O)C(=O)N[C@@H](CCCCN)C(=O)N[C@@H](CCCCNC(=O)COCCOCCNC(=O)COCCOCCNC(=O)CC[C@H](NC(=O)CCCCCCCCCCCCCCCCCCC(=O)O)C(=O)O)C(=O)N[C@@H](C)C(=O)N[C@@H](CCC(N)=O)C(=O)N[C@@H](CCCNC(=N)N)C(=O)N[C@@H](C)C(=O)N[C@@H](Cc1ccccc1)C(=O)N[C@H](C(=O)N[C@@H](CCC(=O)O)C(=O)N[C@@H](Cc1c[nH]c2ccccc12)C(=O)N[C@@H](CC(C)C)C(=O)N[C@@H](CCC(=O)O)C(=O)N[C@@H](C)C(=O)N[C@@H](CCC(N)=O)C(=O)N[C@@H](CCCCN)C(N)=O)C(C)C [Compound 26] (H-Y[Aib]EGTFTSDLSIALEKK([AEEA-AEEA-γGlu-C20 diacid])AQRAFVEWLEAQK-NH2)
Human GIP R; [1]
  EC50: 0.58 nM
Human GLP-1 R
  EC50: 0.014 nM

## CC[C@H](C)[C@H](NC(=O)[C@H](CO)NC(=O)[C@H](Cc1ccc(O)cc1)NC(=O)[C@H](CC(=O)O)NC(=O)[C@H](CO)NC(=O)[C@@H](NC(=O)[C@H](Cc1ccccc1)NC(=O)[C@@H](NC(=O)CNC(=O)[C@H](CCC(=O)O)NC(=O)C(C)(C)NC(=O)[C@@H](N)Cc1ccc(O)cc1)[C@@H](C)O)[C@@H](C)O)C(=O)N[C@@H](Cc1ccc(O)cc1)C(=O)N[C@@H](CC(C)C)C(=O)N[C@@H](CCC(=O)O)C(=O)N[C@@H](CCCCN)C(=O)N[C@@H](CCCCNC(=O)COCCOCCNC(=O)COCCOCCNC(=O)CC[C@H](NC(=O)CCCCCCCCCCCCCCCCCCC(=O)O)C(=O)O)C(=O)N[C@@H](C)C(=O)N[C@@H](CCC(N)=O)C(=O)N[C@@H](CCCNC(=N)N)C(=O)N[C@@H](C)C(=O)N[C@@H](Cc1ccccc1)C(=O)N[C@H](C(=O)N[C@@H](CCC(=O)O)C(=O)N[C@@H](Cc1c[nH]c2ccccc12)C(=O)N[C@@H](CC(C)C)C(=O)N[C@@H](CC(C)C)C(=O)N[C@@H](CCCNC(=N)N)C(=O)N[C@@H](C)C(N)=O)C(C)C [Compound 29] (H-Y[Aib]EGTFTSDYSIYLEKK([AEEA-AEEA-γGlu-C20 diacid])AQRAFVEWLLRA-NH2)
Human GIP R; [2]
  EC50: 0.025 nM
Human GLP-1 R
  EC50: 0.033 nM

## CC[C@H](C)[C@H](NC(=O)[C@H](CO)NC(=O)[C@H](CC(C)C)NC(=O)[C@H](CC(=O)O)NC(=O)[C@H](CO)NC(=O)[C@@H](NC(=O)[C@H](Cc1ccccc1)NC(=O)[C@@H](NC(=O)CNC(=O)[C@H](CCC(=O)O)NC(=O)C(C)(C)NC(=O)[C@@H](N)Cc1ccc(O)cc1)[C@@H](C)O)[C@@H](C)O)C(=O)N[C@@H](C)C(=O)N[C@@H](CC(C)C)C(=O)N[C@@H](CCC(=O)O)C(=O)N[C@@H](CCCCN)C(=O)N[C@@H](CCCCNC(=O)COCCOCCNC(=O)COCCOCCNC(=O)CC[C@H](NC(=O)CCCCCCCCCCCCCCCCCCC(=O)O)C(=O)O)C(=O)N[C@@H](C)C(=O)N[C@@H](CCC(N)=O)C(=O)N[C@@H](CCCNC(=N)N)C(=O)N[C@@H](C)C(=O)N[C@@H](Cc1ccccc1)C(=O)N[C@H](C(=O)N[C@@H](CCC(=O)O)C(=O)N[C@@H](Cc1c[nH]c2ccccc12)C(=O)N[C@@H](CC(C)C)C(=O)N[C@@H](CC(C)C)C(=O)N[C@@H](C)C(=O)N[C@@H](CCC(N)=O)C(=O)NCC(=O)N1CCC[C@H]1C(=O)N[C@@H](CO)C(=O)N[C@@H](CO)C(=O)NCC(=O)N[C@@H](C)C(=O)N1CCC[C@H]1C(=O)N1CCC[C@H]1C(=O)N1CCC[C@H]1C(=O)N[C@@H](CO)C(N)=O)C(C)C [Compound 33] (H-Y[Aib]EGTFTSDLSIALEKK([AEEA-AEEA-γGlu-C20 diacid])AQRAFVEWLLAQGPSSGAPPPS-NH2)
Human GIP R; [2]
  EC50: 0.009 nM
Human GIP R; [1]
  EC50: 0.009 nM
Human GLP-1 R
  EC50: 0.014 nM
